{"source": "patent US20210403874A1", "about": "“Method for Producing Stem/Precursor Cells, By Using Low Molecular Weight Compound, From Cells Derived From Endodermal Tissue or Organ” (Evia Life Sciences Inc., priority 2018, published 2021)", "test_system": "pancreatic progenitor cells", "test": "Induction of differentiation from pancreatic progenitor cells into insulin-producing cells (floating culture)", "assay_type": "cell-based", "settings": "floating culture 7 days in the presence of YAC together with ALK5 inhibitor II, versus YAC; FIG. 6", "protocol": "Total RNA was isolated from the pancreatic exocrine cells and PSC cells using miRNeasy Mini Kit (QIAGEN). Reverse transcription reaction was carried out using High-Capacity cDNA Reverse Transcription Kit (Life Technologies) following the manufacturer's guideline. The resulting cDNA was used as a template to perform PCR with Platinum SYBR Green qPCR SuperMix UDG (Invitrogen). The expression level of the target gene was normalized with β-actin as the endogenous control.\nThe cells were fixed with 4% paraformaldehyde for 15 minutes. The resultant was incubated with a blocking solution (Blocking One) (Nacalai Tesque, Kyoto) at 4° C. for 30 minutes, and then the cells were incubated with primary antibody at room temperature for an hour or at 4° C. overnight. Then, Alexa Fluor 488- or Alexa Fluor 594-labeled secondary antibody (Life Technologies) was used to detect the primary antibody. The nuclei were co-stained with Hoechst 33342 (Dojindo).\nThe cells were suspended in 5% FBS-containing SHM+YAC (cell density: 1×10^4 to 1×10^6 cells/cm') and cultured on an ultra-low adsorption culture dish for 7 days. The medium was exchanged on the fourth day.", "data": [{"smiles": "Cc1cccc(-c2[nH]ncc2-c2ccc3ncccc3n2)n1", "note": "[ALK5 inhibitor II]", "values": [{"measurement": "mRNA expression of Insulin and GLUT2", "value": "further improvements"}]}]}
